According to ChEMBL document CHEMBL1201862, “PubChem BioAssay data set” (2004):
Blank lines part the entries; values can stand above or below the compound they belong to. Active and inactive are the calls of the source.

Columns and labels:
[1] = target: Peroxisome proliferator-activated receptor gamma/Nuclear receptor coactivator 3 (Homo sapiens, UniProt P37231); assay: TR-FRET dose response biochemical High Throughput Screening assay for agonists of the steroid receptor coactivator 3 (SRC-3) recruitment by the peroxisome proliferator-activated receptor gamma (PPAR gamma): non-selective agonists. [Related pubchem assays: 1301 (Confirmation screen.), 1048 (Primary screen.)]; type: functional
[2] = target: Peroxisome proliferator-activated receptor gamma/Nuclear receptor coactivator 2 (Homo sapiens, UniProt P37231); assay: (§1) TR-FRET dose response biochemical High Throughput Screening assay for agonists of the steroid receptor coactivator 2 (SRC-2) recruitment by the peroxisome proliferator-activated receptor gamma (PPAR gamma): non-selective agonists. [Related pubchem assays: 1297, 1032 ]; type: functional
[3] = target: Peroxisome proliferator-activated receptor gamma/Nuclear receptor coactivator 1 (Homo sapiens, UniProt P37231); assay: as §1, with “1 (SRC-1)” for “2 (SRC-2)”, “assays (depositor defined):AID1300, AID1808, AID504735, AID631]” for “assays: 1297, 1032 ]”; type: protein assay
[4] = Luminescence Cell-Based Dose Retest to Confirm Inhibitors of Cancer Stem Cells. [Related pubchem assays (depositor defined):AID2717, AID2721]; type: functional; conditions: Homo sapiens
[5] = viability loss of HMLE_sh_eGFP cells – cell-based, luminescence, counter-screen for HMLE_sh_ECad selective toxicity project, dose response (AID 463074); type: functional, Homo sapiens;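 also: HMLE human mammary epithelial cells expressing control shRNA against eGFP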
[6] = target: T1, Coagulation factor XII (Homo sapiens, UniProt P00748); type: functional;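 also: activated factor XIIa alpha cleaving a fluorogenic AMC peptide substrate; inhibitor potency from loss of enzyme activity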
T1 sequence (P00748 whole entry): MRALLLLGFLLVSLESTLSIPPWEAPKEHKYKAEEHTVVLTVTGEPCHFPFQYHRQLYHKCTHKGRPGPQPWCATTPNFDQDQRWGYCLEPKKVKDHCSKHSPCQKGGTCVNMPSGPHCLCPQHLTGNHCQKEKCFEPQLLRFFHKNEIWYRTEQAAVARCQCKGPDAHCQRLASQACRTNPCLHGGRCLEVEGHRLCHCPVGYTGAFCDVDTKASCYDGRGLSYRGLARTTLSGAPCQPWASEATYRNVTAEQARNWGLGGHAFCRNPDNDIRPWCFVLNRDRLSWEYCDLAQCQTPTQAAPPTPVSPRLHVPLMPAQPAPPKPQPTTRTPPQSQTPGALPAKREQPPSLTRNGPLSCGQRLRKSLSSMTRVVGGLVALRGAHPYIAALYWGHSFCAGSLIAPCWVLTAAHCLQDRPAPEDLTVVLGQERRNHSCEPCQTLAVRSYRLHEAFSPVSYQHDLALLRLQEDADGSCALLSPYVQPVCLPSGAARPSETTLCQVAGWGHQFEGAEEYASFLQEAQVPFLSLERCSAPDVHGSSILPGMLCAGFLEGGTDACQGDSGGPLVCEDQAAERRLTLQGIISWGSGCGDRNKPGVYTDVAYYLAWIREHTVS

[7] = target: Dual specificity tyrosine-phosphorylation-regulated kinase 1A (Rattus norvegicus, UniProt Q63470); type: biochemical, Homo sapiens
[8] = target: Large T antigen (Simian virus 40, UniProt P03070); type: functional, Betapolyomavirus macacae;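 also: Confirmatory-stage PubChem screen for compounds that inhibit SV40 T antigen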
[9] = target: 26S proteasome non-ATPase regulatory subunit 14 (Homo sapiens, UniProt O00487); assay: inhibition of proteasome subunit RPN11 – biochemical, fluorescence polarization, uHTS hits, confirmation (AID 602368); type: functional
[10] = target: 72 kDa type IV collagenase (Homo sapiens, UniProt P08253); assay: Dose Response validation of uHTS RPN11 inhibitor hits using a MMP-2 Fluorescence assay.; type: functional
[11] = target: Prothrombin (Bos taurus, UniProt P00735); assay: thrombin protease inhibitors – biochemical, fluorescence polarization, uHTS hits, dose response (AID 602369); type: functional
[12] = DRD fibroblast viability loss – cell-based, non-viral oncogenic, luminescence, dose response (AID 1934); type: functional; conditions: Homo sapiens
[13] = test system: BJ; assay: BJ-TERT fibroblast viability loss – cell-based, RAS-independent, luminescence, dose response (AID 1933); type: functional; conditions: Homo sapiens
[14] = target: T2, Luciferin 4-monooxygenase (Photinus pyralis, UniProt P08659); assay: Counter Screen for Luciferase-based Assay Positives. [Related pubchem assays: 620, 618, 411 ]
[15] = target: Heat shock protein HSP 90-alpha (Homo sapiens, UniProt P07900); type: functional, organism-based
[16] = Luminescence Cell-Based Dose Confirmation HTS to Identify Inhibitors of Platelet Dense Granule Release. [Related pubchem assays: 1663 (Primary HTS), 1678 (Summary of Project)]; type: functional
[17] = test system: BJ; assay: growth inhibition of engineered Ras-driven BJ cells – cell-based, alamar blue fluorescence, cherrypicked samples, dose response (AID 2631); type: functional; conditions: Homo sapiens;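 also: confirmatory dose-response assay in RAS-dependent BJ fibroblasts engineered with TERT, LT and ST, with cytotoxicity read by fluorescence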
[18] = test system: HT-1080; assay: HT1080 cell viability loss – fluorescence readout (AID 620); type: functional, cell-based; conditions: Homo sapiens
[19] = test system: BJ; assay: BJ-TERT-LT-ST fibroblast viability loss – cell-based, RAS-independent, luminescence, dose response (AID 1935); type: functional; conditions: Homo sapiens;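 also: BJ fibroblasts immortalized with TERT plus LT and ST oncogenes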
[20] = target: T2, Luciferin 4-monooxygenase; assay: inhibition of purified Photinus pyralis luciferase – biochemical, luminescence, dose response (AID 1891)
[21] = test system: BJ; assay: cells; type: functional, cell-based; conditions: Homo sapiens

Peroxisome proliferator-activated receptor gamma/Nuclear receptor coactivator 2, sequence (P37231 whole entry): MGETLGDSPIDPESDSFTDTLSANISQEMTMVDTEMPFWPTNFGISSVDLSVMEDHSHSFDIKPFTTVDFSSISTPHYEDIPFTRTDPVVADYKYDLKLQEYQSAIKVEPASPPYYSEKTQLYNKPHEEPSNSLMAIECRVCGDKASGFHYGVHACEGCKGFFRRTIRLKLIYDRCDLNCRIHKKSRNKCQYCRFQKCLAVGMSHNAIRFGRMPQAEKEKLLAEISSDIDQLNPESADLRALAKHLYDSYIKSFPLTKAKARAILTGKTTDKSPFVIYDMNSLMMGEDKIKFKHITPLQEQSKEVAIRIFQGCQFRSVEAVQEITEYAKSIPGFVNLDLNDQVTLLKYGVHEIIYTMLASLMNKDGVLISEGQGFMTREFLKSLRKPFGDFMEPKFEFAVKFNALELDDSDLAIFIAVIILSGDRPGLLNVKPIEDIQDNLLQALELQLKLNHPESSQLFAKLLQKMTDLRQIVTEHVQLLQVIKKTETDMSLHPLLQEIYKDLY
Peroxisome proliferator-activated receptor gamma/Nuclear receptor coactivator 2, sequence (Q15596 whole entry, further chain): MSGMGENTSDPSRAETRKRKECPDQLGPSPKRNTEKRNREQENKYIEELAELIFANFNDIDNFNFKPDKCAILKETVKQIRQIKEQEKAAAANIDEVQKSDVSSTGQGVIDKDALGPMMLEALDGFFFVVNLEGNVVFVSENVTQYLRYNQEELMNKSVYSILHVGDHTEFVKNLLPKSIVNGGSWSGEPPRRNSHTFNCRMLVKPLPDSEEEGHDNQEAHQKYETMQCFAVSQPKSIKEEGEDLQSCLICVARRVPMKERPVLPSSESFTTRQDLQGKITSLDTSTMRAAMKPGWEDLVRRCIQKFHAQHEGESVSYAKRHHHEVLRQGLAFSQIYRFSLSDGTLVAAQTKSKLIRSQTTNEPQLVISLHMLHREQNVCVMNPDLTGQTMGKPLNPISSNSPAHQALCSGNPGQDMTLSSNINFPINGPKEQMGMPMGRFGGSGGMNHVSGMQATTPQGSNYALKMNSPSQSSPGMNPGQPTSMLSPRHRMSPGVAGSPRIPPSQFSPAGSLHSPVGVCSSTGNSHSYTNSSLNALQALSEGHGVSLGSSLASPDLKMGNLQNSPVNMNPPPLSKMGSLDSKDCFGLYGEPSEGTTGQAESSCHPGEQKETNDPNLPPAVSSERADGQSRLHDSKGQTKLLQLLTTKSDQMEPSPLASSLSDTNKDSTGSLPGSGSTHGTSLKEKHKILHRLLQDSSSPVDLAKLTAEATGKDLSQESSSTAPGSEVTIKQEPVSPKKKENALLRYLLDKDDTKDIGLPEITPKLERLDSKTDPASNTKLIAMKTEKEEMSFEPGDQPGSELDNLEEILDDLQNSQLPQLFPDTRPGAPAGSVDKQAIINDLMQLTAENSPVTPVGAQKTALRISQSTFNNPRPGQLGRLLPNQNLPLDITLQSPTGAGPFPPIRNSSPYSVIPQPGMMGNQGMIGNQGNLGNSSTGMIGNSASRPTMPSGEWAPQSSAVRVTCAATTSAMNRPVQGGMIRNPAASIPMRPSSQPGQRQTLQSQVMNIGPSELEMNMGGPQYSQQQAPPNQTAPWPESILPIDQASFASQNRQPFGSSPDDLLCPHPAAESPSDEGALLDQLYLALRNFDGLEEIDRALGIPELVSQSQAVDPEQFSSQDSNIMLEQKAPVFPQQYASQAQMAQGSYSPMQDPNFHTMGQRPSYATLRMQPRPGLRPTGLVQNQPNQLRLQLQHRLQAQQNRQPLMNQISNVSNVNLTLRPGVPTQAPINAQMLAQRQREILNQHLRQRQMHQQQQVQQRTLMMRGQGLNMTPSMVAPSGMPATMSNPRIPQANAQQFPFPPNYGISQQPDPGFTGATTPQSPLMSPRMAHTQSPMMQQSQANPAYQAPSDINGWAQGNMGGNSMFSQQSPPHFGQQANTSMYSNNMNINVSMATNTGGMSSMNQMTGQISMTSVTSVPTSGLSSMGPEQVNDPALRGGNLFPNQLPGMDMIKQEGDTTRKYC
Peroxisome proliferator-activated receptor gamma/Nuclear receptor coactivator 1, sequence (P37231 whole entry): as the sequence (P37231 whole entry) above
Peroxisome proliferator-activated receptor gamma/Nuclear receptor coactivator 1, sequence (Q15788 whole entry, further chain): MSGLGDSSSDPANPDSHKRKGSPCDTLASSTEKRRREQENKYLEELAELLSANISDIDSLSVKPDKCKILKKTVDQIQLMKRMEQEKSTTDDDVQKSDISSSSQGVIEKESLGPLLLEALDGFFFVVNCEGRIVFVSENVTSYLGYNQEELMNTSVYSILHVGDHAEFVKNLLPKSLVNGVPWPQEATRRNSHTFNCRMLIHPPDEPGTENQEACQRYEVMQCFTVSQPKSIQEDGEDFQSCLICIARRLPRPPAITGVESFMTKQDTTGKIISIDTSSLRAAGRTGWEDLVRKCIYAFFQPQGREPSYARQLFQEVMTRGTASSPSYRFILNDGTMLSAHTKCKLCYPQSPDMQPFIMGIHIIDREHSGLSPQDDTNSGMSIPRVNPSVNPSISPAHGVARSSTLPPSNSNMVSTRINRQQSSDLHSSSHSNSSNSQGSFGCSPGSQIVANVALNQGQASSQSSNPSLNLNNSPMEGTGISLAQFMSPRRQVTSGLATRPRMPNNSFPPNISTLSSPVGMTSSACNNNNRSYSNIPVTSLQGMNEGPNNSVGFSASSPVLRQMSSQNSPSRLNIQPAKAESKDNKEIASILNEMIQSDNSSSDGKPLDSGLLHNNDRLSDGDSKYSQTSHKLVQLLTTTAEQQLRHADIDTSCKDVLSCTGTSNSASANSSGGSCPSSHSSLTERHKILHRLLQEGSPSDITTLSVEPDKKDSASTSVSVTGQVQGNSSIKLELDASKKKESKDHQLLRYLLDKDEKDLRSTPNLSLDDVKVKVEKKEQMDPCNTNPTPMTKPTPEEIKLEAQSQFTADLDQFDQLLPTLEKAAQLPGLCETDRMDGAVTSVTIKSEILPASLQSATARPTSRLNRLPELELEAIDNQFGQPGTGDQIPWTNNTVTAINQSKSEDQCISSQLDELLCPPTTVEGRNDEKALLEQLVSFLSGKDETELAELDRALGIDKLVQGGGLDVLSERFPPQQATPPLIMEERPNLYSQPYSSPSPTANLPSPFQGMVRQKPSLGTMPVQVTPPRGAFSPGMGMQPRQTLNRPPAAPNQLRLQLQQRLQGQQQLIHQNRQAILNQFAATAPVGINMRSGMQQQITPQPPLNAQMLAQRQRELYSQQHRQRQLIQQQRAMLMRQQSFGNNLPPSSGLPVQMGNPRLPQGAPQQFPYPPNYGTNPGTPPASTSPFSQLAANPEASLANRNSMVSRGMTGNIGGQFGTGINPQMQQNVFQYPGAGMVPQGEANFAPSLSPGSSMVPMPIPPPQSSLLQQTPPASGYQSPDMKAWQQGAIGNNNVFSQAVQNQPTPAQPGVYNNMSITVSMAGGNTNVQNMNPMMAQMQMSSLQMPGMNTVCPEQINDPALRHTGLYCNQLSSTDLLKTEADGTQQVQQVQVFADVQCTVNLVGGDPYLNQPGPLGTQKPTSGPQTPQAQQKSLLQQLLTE
T2 sequence (P08659 whole entry): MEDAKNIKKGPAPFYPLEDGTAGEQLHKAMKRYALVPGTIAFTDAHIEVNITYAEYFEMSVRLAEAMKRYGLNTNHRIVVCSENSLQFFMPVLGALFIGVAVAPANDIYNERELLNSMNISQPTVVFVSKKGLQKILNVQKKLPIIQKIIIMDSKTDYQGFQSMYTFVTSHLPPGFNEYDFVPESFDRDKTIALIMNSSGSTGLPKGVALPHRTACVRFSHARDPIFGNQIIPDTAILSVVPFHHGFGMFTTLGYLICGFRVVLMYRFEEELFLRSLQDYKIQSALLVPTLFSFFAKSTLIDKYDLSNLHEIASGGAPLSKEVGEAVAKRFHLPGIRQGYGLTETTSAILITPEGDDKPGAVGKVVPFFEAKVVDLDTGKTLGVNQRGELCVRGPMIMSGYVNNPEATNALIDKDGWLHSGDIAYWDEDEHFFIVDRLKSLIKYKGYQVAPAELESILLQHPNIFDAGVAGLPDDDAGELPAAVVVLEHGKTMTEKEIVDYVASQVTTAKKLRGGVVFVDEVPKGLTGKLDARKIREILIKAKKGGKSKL
26S proteasome non-ATPase regulatory subunit 14, sequence (O00487 whole entry): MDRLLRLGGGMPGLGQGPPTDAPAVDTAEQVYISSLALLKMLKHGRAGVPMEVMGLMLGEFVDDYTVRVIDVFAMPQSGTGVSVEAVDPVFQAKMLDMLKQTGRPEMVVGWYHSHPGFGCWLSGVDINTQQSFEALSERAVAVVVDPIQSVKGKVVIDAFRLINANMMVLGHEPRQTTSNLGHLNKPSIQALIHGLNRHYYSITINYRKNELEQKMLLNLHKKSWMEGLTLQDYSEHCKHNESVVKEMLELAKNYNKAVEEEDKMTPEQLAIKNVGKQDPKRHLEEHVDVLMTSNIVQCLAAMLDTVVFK

Compound: O=C(Nc1nc2c(s1)CN(Cc1ccccc1)CC2)c1cccc(S(=O)(=O)N2CCc3ccccc32)c1
EC50 [1]: 28 µM (not active) | EC50 [2]: 14.8 µM (not active) | EC50 [3]: 10.8 µM (inactive)

Compound: CC1=C(C(=O)Nc2ccccc2)C(c2ccco2)C(C#N)=C(SCc2ccccc2)N1 (stereo not drawn)
AC50 [4]: 17.5 µM (active) | AC50 [5]: 28.4 µM (active)

Compound: CCOC(=O)C1CCCN(CC(=O)Nc2c(C(=O)OC)[nH]c3ccc(Br)cc23)C1 (stereo not drawn)
EC50 [1]: > 79.4 µM (not active) | EC50 [2]: > 26.5 µM (not active) | EC50 [3]: > 79.4 µM (inactive)

Compound: Cc1cc(C)c(S(=O)(=O)N2C[C@H]3CON(C)[C@H]3C[C@H]2c2ccc(N3CCCCC3)cc2)c(C)c1
IC50 [9]: 23.2 µM (active) | IC50 [10]: > 100 µM (inactive) | IC50 [11]: 29.2 µM (active)

Compound: CCOc1ccc2nc(NC(=O)c3ccoc3C)sc2c1
EC50 [12]: 1.97 µM (active) | EC50 [13]: 2.43 µM (active) | EC50 [14]: 6.49 µM (active) | AC50 [15]: 2.02 µM (active) | EC50 [16]: 0.231 µM (active) | EC50 [17]: > 133 µM (inactive) | EC50 [18]: > 50 µM (not active) | EC50 [19]: 6.32 µM (active) | EC50 [20]: < 0.088 µM (active) | EC50 [21]: 1.79 µM (active)

The remaining lines, values ahead:

EC50 [1]: 17.6 µM (not active) | EC50 [2]: > 79.4 µM (not active) | EC50 [3]: 10.6 µM (inactive)
Compound: CC(Sc1nnc(-c2ccc(Cl)cc2Cl)n1Cc1ccccc1)C(=O)Nc1nccs1 (stereo not drawn)

IC50 [6]: > 50 µM (inactive)
Compound: COc1ccc(N(CC(=O)Nc2ccccc2SC)S(C)(=O)=O)cc1OC

IC50 [6]: > 50 µM (inactive)
Compound: COCc1c(C(=O)OCc2nc(N)nc(Nc3ccccc3C)n2)oc2ccccc12

AC50 [7]: 0.754 µM (active) | IC50 [8]: 3.5 µM (active)
Compound: Oc1ccc2c(c1)oc1cc(O)ccc12
